Data taken from PubChem BioAssay (NCI).
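The concentration for 50% growth inhibition is given as GI50. TGI marks complete inhibition of growth.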

Tests used:
Experiment in all cases: NCI-60 cell line screen, 384-well format
SW-620 colon = system: SW-620 colon
SF-539 CNS = system: SF-539 CNS
MDA-MB-468 breast = system: MDA-MB-468 breast
OVCAR-4 ovarian = system: OVCAR-4 ovarian
CAKI-1 renal = system: CAKI-1 renal
MALME-3M melanoma = system: MALME-3M melanoma
NCI-H322M lung = system: NCI-H322M lung
OVCAR-3 ovarian = system: OVCAR-3 ovarian
SNB-19 CNS = system: SNB-19 CNS
RXF 393 renal = system: RXF 393 renal
OVCAR-8 ovarian = system: OVCAR-8 ovarian
HCT-15 colon = system: HCT-15 colon
NCI-H522 lung = system: NCI-H522 lung
BT-549 breast = system: BT-549 breast
ACHN renal = system: ACHN renal
COLO 205 colon = system: COLO 205 colon
UO-31 renal = system: UO-31 renal
HCC-2998 colon = system: HCC-2998 colon
SF-268 CNS = system: SF-268 CNS
NCI/ADR-RES ovarian = system: NCI/ADR-RES ovarian
HOP-62 NSCLC = system: HOP-62 NSCLC
A498 renal = system: A498 renal
HS 578T breast = system: HS 578T breast
A549 NSCLC = system: A549 NSCLC
LOX IMVI melanoma = system: LOX IMVI melanoma
RPMI-8226 leukemia = system: RPMI-8226 leukemia
HOP-92 NSCLC = system: HOP-92 NSCLC
PC-3 prostate = system: PC-3 prostate
T-47D breast = system: T-47D breast
HT29 colon = system: HT29 colon
NCI-H226 lung = system: NCI-H226 lung
SN12C renal = system: SN12C renal
MDA-MB-435 melanoma = system: MDA-MB-435 melanoma
K-562 leukemia = system: K-562 leukemia
MCF7 breast = system: MCF7 breast
SK-OV-3 ovarian = system: SK-OV-3 ovarian
M14 melanoma = system: M14 melanoma
KM12 colon = system: KM12 colon
U251 glioblastoma = system: U251 glioblastoma
786-0 renal = system: 786-0 renal
MOLT-4 leukemia = system: MOLT-4 leukemia
SK-MEL-5 melanoma = system: SK-MEL-5 melanoma
SK-MEL-28 melanoma = system: SK-MEL-28 melanoma
DU-145 prostate = system: DU-145 prostate
UACC-62 melanoma = system: UACC-62 melanoma
SR leukemia = system: SR leukemia
SF-295 CNS = system: SF-295 CNS
MDA-MB-231 breast = system: MDA-MB-231 breast
EKVX NSCLC = system: EKVX NSCLC
TK-10 renal = system: TK-10 renal
NCI-H23 lung = system: NCI-H23 lung
IGROV1 ovarian = system: IGROV1 ovarian
SNB-75 CNS = system: SNB-75 CNS
HL-60(TB) leukemia = system: HL-60(TB) leukemia
UACC-257 melanoma = system: UACC-257 melanoma
NCI-H460 NSCLC = system: NCI-H460 NSCLC
HCT-116 colon = system: HCT-116 colon
CCRF-CEM leukemia = system: CCRF-CEM leukemia

How did the GI50 (SW-620 colon) turn out when Cc1nnc(C[C@@H]2C=C(c3ccc(Cl)cc3)c3ccccc3-n3c(C)nnc32)o1 was run?
The GI50 was 10.4 µM.

And the TGI (SW-620 colon)?
Its TGI is 22.7 µM.

And the GI50 (SF-539 CNS)?
Its GI50 is 1.65 µM.

What about the TGI (SF-539 CNS) of the same molecule?
The TGI was 24.5 µM.

What about the GI50 (MDA-MB-468 breast) of the same molecule?
The GI50 was 1.5 µM.

And the TGI (MDA-MB-468 breast)?
The TGI was 16.4 µM.

What about the GI50 (OVCAR-4 ovarian) of the same molecule?
Its GI50 is 0.447 µM.

And the TGI (OVCAR-4 ovarian)?
The TGI was 4.91 µM.

And the GI50 (CAKI-1 renal)?
The GI50 was 0.0908 µM.

What about the TGI (CAKI-1 renal) of the same molecule?
The TGI was 13.5 µM.

And the GI50 (MALME-3M melanoma)?
Its GI50 is 0.382 µM.

What about the TGI (MALME-3M melanoma) of the same molecule?
The TGI was 19.3 µM.

And the GI50 (NCI-H322M lung)?
Its GI50 is 0.492 µM.

And the TGI (NCI-H322M lung)?
The TGI was 37.6 µM.

And the GI50 (OVCAR-3 ovarian)?
The GI50 was 0.379 µM.

And the TGI (OVCAR-3 ovarian)?
The TGI was 12.9 µM.

And the GI50 (SNB-19 CNS)?
The GI50 was 2.55 µM.

What about the TGI (SNB-19 CNS) of the same molecule?
Its TGI is 31.6 µM.

And the GI50 (RXF 393 renal)?
Its GI50 is 2.6 µM.

What about the TGI (RXF 393 renal) of the same molecule?
Its TGI is 18.3 µM.

What about the GI50 (OVCAR-8 ovarian) of the same molecule?
Its GI50 is 0.246 µM.

What about the TGI (OVCAR-8 ovarian) of the same molecule?
Its TGI is 3.1 µM.

And the GI50 (HCT-15 colon)?
The GI50 was 0.283 µM.

What about the TGI (HCT-15 colon) of the same molecule?
Its TGI is 10.4 µM.

What about the GI50 (NCI-H522 lung) of the same molecule?
Its GI50 is 0.25 µM.

What about the TGI (NCI-H522 lung) of the same molecule?
Its TGI is 2.95 µM.

And the GI50 (BT-549 breast)?
Its GI50 is 0.238 µM.

And the TGI (BT-549 breast)?
The TGI was 10 µM.

And the GI50 (ACHN renal)?
Its GI50 is 1.96 µM.

And the TGI (ACHN renal)?
The TGI was 56.8 µM.

What about the GI50 (COLO 205 colon) of the same molecule?
Its GI50 is 0.487 µM.

What about the TGI (COLO 205 colon) of the same molecule?
Its TGI is 17.2 µM.

What about the GI50 (UO-31 renal) of the same molecule?
Its GI50 is 0.676 µM.

And the TGI (UO-31 renal)?
Its TGI is over 100 µM.

What about the GI50 (HCC-2998 colon) of the same molecule?
Its GI50 is 0.285 µM.

And the TGI (HCC-2998 colon)?
Its TGI is 2.46 µM.

And the GI50 (SF-268 CNS)?
Its GI50 is 3.22 µM.

What about the TGI (SF-268 CNS) of the same molecule?
Its TGI is 24 µM.

And the GI50 (NCI/ADR-RES ovarian)?
Its GI50 is 1.49 µM.

And the TGI (NCI/ADR-RES ovarian)?
The TGI was 12.5 µM.

What about the GI50 (HOP-62 NSCLC) of the same molecule?
Its GI50 is 0.316 µM.

What about the TGI (HOP-62 NSCLC) of the same molecule?
Its TGI is 16.2 µM.

What about the GI50 (A498 renal) of the same molecule?
The GI50 was 0.783 µM.

What about the TGI (A498 renal) of the same molecule?
The TGI was 16.3 µM.

What about the GI50 (HS 578T breast) of the same molecule?
The GI50 was 0.0882 µM.

And the TGI (HS 578T breast)?
Its TGI is 1.4 µM.

And the GI50 (A549 NSCLC)?
Its GI50 is 0.989 µM.

And the TGI (A549 NSCLC)?
Its TGI is 26.4 µM.

And the GI50 (LOX IMVI melanoma)?
Its GI50 is 0.192 µM.

What about the TGI (LOX IMVI melanoma) of the same molecule?
The TGI was 0.469 µM.

And the GI50 (RPMI-8226 leukemia)?
The GI50 was 0.059 µM.

And the TGI (RPMI-8226 leukemia)?
The TGI was 0.351 µM.

What about the GI50 (HOP-92 NSCLC) of the same molecule?
Its GI50 is 0.595 µM.

And the TGI (HOP-92 NSCLC)?
The TGI was 45 µM.

What about the GI50 (PC-3 prostate) of the same molecule?
Its GI50 is 0.996 µM.

What about the TGI (PC-3 prostate) of the same molecule?
Its TGI is 33.2 µM.

What about the GI50 (T-47D breast) of the same molecule?
The GI50 was 4.96 µM.

And the TGI (T-47D breast)?
Its TGI is 57.9 µM.

And the GI50 (HT29 colon)?
Its GI50 is 0.267 µM.

And the TGI (HT29 colon)?
Its TGI is 14.5 µM.

And the GI50 (NCI-H226 lung)?
The GI50 was 0.294 µM.

And the TGI (NCI-H226 lung)?
Its TGI is 17.4 µM.

And the GI50 (SN12C renal)?
The GI50 was 12.5 µM.

What about the TGI (SN12C renal) of the same molecule?
Its TGI is 41.1 µM.

What about the GI50 (MDA-MB-435 melanoma) of the same molecule?
The GI50 was 2.13 µM.

And the TGI (MDA-MB-435 melanoma)?
The TGI was 17.1 µM.

And the GI50 (K-562 leukemia)?
Its GI50 is 0.377 µM.

And the TGI (K-562 leukemia)?
Its TGI is 15.4 µM.

What about the GI50 (MCF7 breast) of the same molecule?
Its GI50 is 0.087 µM.

What about the TGI (MCF7 breast) of the same molecule?
Its TGI is 21.4 µM.

What about the GI50 (SK-OV-3 ovarian) of the same molecule?
Its GI50 is 0.393 µM.

What about the TGI (SK-OV-3 ovarian) of the same molecule?
The TGI was 15.3 µM.

And the GI50 (M14 melanoma)?
The GI50 was 0.935 µM.

And the TGI (M14 melanoma)?
Its TGI is 38.8 µM.

What about the GI50 (KM12 colon) of the same molecule?
Its GI50 is 1.69 µM.

And the TGI (KM12 colon)?
Its TGI is 20.7 µM.

What about the GI50 (U251 glioblastoma) of the same molecule?
The GI50 was 3.89 µM.

What about the TGI (U251 glioblastoma) of the same molecule?
The TGI was 25 µM.

And the GI50 ([…]-0 renal)?
Its GI50 is 0.424 µM.

What about the TGI (786-0 renal) of the same molecule?
Its TGI is 20.8 µM.

What about the GI50 (MOLT-4 leukemia) of the same molecule?
The GI50 was 0.321 µM.

And the TGI (MOLT-4 leukemia)?
The TGI was 10.2 µM.

What about the GI50 (SK-MEL-5 melanoma) of the same molecule?
Its GI50 is 0.695 µM.

What about the TGI (SK-MEL-5 melanoma) of the same molecule?
Its TGI is 17.7 µM.

What about the GI50 (SK-MEL-28 melanoma) of the same molecule?
The GI50 was 0.987 µM.

And the TGI (SK-MEL-28 melanoma)?
The TGI was 36.7 µM.

And the GI50 (DU-145 prostate)?
Its GI50 is 5.28 µM.

And the TGI (DU-145 prostate)?
The TGI was 43 µM.

And the GI50 (UACC-62 melanoma)?
Its GI50 is 0.076 µM.

What about the TGI (UACC-62 melanoma) of the same molecule?
The TGI was 12.2 µM.

And the GI50 (SR leukemia)?
The GI50 was 0.0585 µM.

And the TGI (SR leukemia)?
The TGI was 0.371 µM.

What about the GI50 (SF-295 CNS) of the same molecule?
The GI50 was 4.52 µM.

And the TGI (SF-295 CNS)?
The TGI was 32.6 µM.

What about the GI50 (MDA-MB-231 breast) of the same molecule?
Its GI50 is 0.39 µM.

What about the TGI (MDA-MB-231 breast) of the same molecule?
Its TGI is over 100 µM.

What about the GI50 (EKVX NSCLC) of the same molecule?
The GI50 was 17.5 µM.

And the TGI (EKVX NSCLC)?
The TGI was 66.8 µM.

And the GI50 (TK-10 renal)?
Its GI50 is 0.29 µM.

What about the TGI (TK-10 renal) of the same molecule?
The TGI was 13.4 µM.

And the GI50 (NCI-H23 lung)?
Its GI50 is 0.545 µM.

And the TGI (NCI-H23 lung)?
Its TGI is 12.9 µM.

What about the GI50 (IGROV1 ovarian) of the same molecule?
Its GI50 is 0.631 µM.

What about the TGI (IGROV1 ovarian) of the same molecule?
Its TGI is 15.2 µM.

What about the GI50 (SNB-75 CNS) of the same molecule?
Its GI50 is 0.965 µM.

What about the TGI (SNB-75 CNS) of the same molecule?
Its TGI is over 100 µM.

What about the GI50 (HL-60(TB) leukemia) of the same molecule?
Its GI50 is 0.0346 µM.

And the TGI (HL-60(TB) leukemia)?
Its TGI is 0.144 µM.

What about the GI50 (UACC-257 melanoma) of the same molecule?
The GI50 was 7.05 µM.

What about the TGI (UACC-257 melanoma) of the same molecule?
Its TGI is 27.3 µM.

What about the GI50 (NCI-H460 NSCLC) of the same molecule?
The GI50 was 1.34 µM.

What about the TGI (NCI-H460 NSCLC) of the same molecule?
Its TGI is 18.7 µM.

What about the GI50 (HCT-116 colon) of the same molecule?
The GI50 was 0.453 µM.

And the TGI (HCT-116 colon)?
Its TGI is 17.9 µM.

What about the GI50 (CCRF-CEM leukemia) of the same molecule?
The GI50 was 0.357 µM.

What about the TGI (CCRF-CEM leukemia) of the same molecule?
Its TGI is 12.5 µM.
